In publication PMC7085114 (Biochemistry, 2020):
Entries after “also recorded” stand apart in the source; their conditions may differ. Where two headings read alike, the source gives them in different places.

Legend:
SARM1 TIR domain [1] = molecular target: T1, SARM1 TIR domain (Homo sapiens, UniProt Q6SZW1); assay: Continuous fluorescent ENAD hydrolysis assay, SARM1 TIR domain in lysate; type: biochemical; settings: for Inhibition of SARM1 (in words): 0 – 1 mM analog, ENAD 50 μM
T1 sequence (Q6SZW1 561-724): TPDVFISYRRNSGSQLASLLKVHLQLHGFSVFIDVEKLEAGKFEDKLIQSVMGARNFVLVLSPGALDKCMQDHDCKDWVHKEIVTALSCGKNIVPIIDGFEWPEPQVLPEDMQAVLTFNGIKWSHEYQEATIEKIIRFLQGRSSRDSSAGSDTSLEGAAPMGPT

full length SARM1 = molecular target: T2, full length SARM1 (Homo sapiens, UniProt Q6SZW1); settings: Full length SARM1, substrate ENAD
T2 sequence (Q6SZW1 28-724): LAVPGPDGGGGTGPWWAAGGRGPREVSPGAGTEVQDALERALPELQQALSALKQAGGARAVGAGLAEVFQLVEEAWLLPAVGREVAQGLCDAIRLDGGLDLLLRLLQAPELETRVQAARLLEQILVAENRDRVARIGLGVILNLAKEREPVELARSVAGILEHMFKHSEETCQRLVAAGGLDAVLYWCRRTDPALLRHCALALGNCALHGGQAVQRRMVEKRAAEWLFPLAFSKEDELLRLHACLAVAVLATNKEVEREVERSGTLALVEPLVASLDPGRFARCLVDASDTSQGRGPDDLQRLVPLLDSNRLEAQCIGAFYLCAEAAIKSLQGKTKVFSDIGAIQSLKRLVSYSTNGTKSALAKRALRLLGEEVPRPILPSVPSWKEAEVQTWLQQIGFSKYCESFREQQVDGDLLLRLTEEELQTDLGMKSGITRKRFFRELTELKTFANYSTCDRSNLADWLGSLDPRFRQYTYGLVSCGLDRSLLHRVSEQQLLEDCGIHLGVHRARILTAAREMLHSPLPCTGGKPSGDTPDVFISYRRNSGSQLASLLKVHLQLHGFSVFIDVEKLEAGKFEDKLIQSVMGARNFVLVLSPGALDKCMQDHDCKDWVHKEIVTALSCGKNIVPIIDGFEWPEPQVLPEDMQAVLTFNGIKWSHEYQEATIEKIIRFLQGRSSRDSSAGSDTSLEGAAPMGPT

SARM1 SAM^1–2TIR domains = molecular target: T3, SARM1 SAM^1–2TIR domains (Homo sapiens, UniProt Q6SZW1); settings: SAM TIR construct, substrate ENAD
T3 sequence (Q6SZW1 412-724): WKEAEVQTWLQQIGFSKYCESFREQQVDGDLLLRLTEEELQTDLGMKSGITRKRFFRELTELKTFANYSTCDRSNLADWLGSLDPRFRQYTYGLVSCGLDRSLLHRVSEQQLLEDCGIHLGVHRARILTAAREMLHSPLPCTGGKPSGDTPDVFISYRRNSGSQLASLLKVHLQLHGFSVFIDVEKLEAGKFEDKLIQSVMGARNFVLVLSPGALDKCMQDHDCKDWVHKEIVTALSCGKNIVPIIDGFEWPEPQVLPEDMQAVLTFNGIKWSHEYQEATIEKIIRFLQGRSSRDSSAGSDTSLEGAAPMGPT

SARM1 TIR domain [2] = molecular target: T1, SARM1 TIR domain; assay: Luminescent NNMT-coupled NAD+ hydrolysis assay; type: biochemical; settings: TIR domain on affinity beads, substrate NAD^+
CD38 = settings: cited from earlier work
Sir2 = settings: ref [24]–[27]; cited from earlier work
[3] = 300 nM SARM1, ENAD 0 – 400 μM varied
[4] = 2 mM metal or EDTA, 300 nM SARM1, 200 μM ENAD

**Q.** Which “Effect of reducing agents on SARM1 activity” value (SARM1 TIR domain [1]; 0 – 2 mM reducing agent, 100 μM ENAD) does the source give for `O[C@@H](CS)[C@@H](O)CS` (racemic) [DTT, dithiothreitrol] here?
**A.** Neither DTT nor TCEP altered SARM1 activity

**Q.** With `NC(=O)c1cnccc1Cl` [4–CN, 4–chloronicotinamide] as the compound, how does the IC50 (SARM1 TIR domain [1]) read?
**A.** 640 ± 40 µM

**Q.** And the Ki (SARM1 TIR domain [1])?
**A.** 700 ± 30 µM

**Q.** What about the “Inhibition of SARM1 (in words)” value (SARM1 TIR domain [1]) of the same compound?
**A.** inhibit SARM1

**Q.** And the “Pattern (mechanism) of inhibition” value (SARM1 TIR domain [1]; [3])?
**A.** noncompetitive

**Q.** And the “Pattern (mechanism) of inhibition” value (SARM1 TIR domain [1]; 300 nM SARM1, ENAD 0 – 400 μM varied, listed as 4-Chloronicotinamide)?
**A.** noncompetitively

**Q.** With `NC(=O)c1ccc(Cl)nc1` [6-CN, 6–chloronicotinamide] as the compound, how does the “Inhibition of SARM1 (in words)” value (SARM1 TIR domain [1]) read?
**A.** inhibit SARM1

**Q.** Which Ki (SARM1 TIR domain [1]; [3]) does the source give for `Nc1ncnc2c1ncn2[C@@H]1O[C@H](COP(=O)(O)OP(=O)(O)OC[C@H]2OC(O)[C@H](O)[C@@H]2O)[C@@H](O)[C@H]1O` (stereo partly shown) [ADPR, ADP Ribose] here?
**A.** 90 ± 10 µM

**Q.** What about the “Pattern (mechanism) of inhibition” value (SARM1 TIR domain [1]; [3]) of the same compound?
**A.** competitive; also recorded: competitively

**Q.** Which “Effect of divalent metal ions and EDTA on SARM1 catalysis” value (“Effect of divalent metal ions and EDTA” for short) (SARM1 TIR domain [1]; [4]) does the source give for `[Ca+2].[Cl-].[Cl-]` [CaCl2] here?
**A.** only Ni^2+ and Zn^2+ inhibit SARM1

**Q.** Which “Effect of divalent metal ions and EDTA” value (SARM1 TIR domain [1]) does the source give for `[Cl][Cd][Cl]` [CdCl2] here?
**A.** only Ni^2+ and Zn^2+ inhibit SARM1

**Q.** Which “Effect of divalent metal ions and EDTA” value (SARM1 TIR domain [1]) does the source give for `[Cl-].[Cl-].[Co+2]` [CoCl2] here?
**A.** only Ni^2+ and Zn^2+ inhibit SARM1

**Q.** For `[Cl][Cu][Cl]` [CuCl2], which “Effect of divalent metal ions and EDTA” value (SARM1 TIR domain [1]; [4]) is on record?
**A.** only Ni^2+ and Zn^2+ inhibit SARM1

**Q.** For `O=C(O)CN(CCN(CC(=O)O)CC(=O)O)CC(=O)O` [EDTA, ethylenediaminetetraacetic acid], which “Effect of divalent metal ions and EDTA” value (SARM1 TIR domain [1]; [4]) is on record?
**A.** lack of an effect

**Q.** Which Km (full length SARM1) does the source give for `NC(=O)c1ccc[n+]([C@@H]2O[C@H](COP(=O)([O-])OP(=O)(O)OC[C@H]3O[C@@H](n4cnc5c4ncn4ccnc54)[C@H](O)[C@@H]3O)[C@@H](O)[C@H]2O)c1` [ENAD, Nicotinamide 1, N^6–ethenoadenine dinucleotide] here?
**A.** 70 ± 20 µM

**Q.** What about the kcat (full length SARM1) of the same compound?
**A.** 0.40 ± 0.04 s⁻¹

**Q.** And the Km (SARM1 TIR domain [1])?
**A.** 35 ± 10 µM

**Q.** And the kcat (SARM1 TIR domain [1]; TIR domain, substrate ENAD, fluorescent assay)?
**A.** 0.06 ± 0.03 s⁻¹

**Q.** What about the Km (SARM1 SAM^1–2TIR domains) of the same compound?
**A.** 130 ± 20 µM

**Q.** What about the kcat (SARM1 SAM^1–2TIR domains) of the same compound?
**A.** 0.12 ± 0.02 s⁻¹

**Q.** For `[Cl-].[Cl-].[Mg+2]` [MgCl2], which “Effect of divalent metal ions and EDTA” value (SARM1 TIR domain [1]; [4]) is on record?
**A.** only Ni^2+ and Zn^2+ inhibit SARM1

**Q.** Which “Effect of divalent metal ions and EDTA” value (SARM1 TIR domain [1]; [4]) does the source give for `[Cl][Mn][Cl]` [MnCl2] here?
**A.** only Ni^2+ and Zn^2+ inhibit SARM1

**Q.** With `NC(=O)c1ccc[n+]([C@@H]2O[C@H](COP(=O)([O-])OP(=O)(O)OC[C@H]3O[C@@H](n4cnc5c(N)ncnc54)[C@H](O)[C@@H]3O)[C@@H](O)[C@H]2O)c1` [NAD^+] as the compound, how does the Km (SARM1 TIR domain [2]) read?
**A.** 28 ± 6 µM

**Q.** And the kcat (SARM1 TIR domain [2])?
**A.** 0.21 ± 0.03 s⁻¹

**Q.** Which results are given for `[Cl][Ni][Cl]` [Ni^2+, NiCl2]?
**A.** Effect of divalent metal ions and EDTA on SARM1 catalysis (SARM1 TIR domain [1]): inhibit SARM1; IC50 (SARM1 TIR domain [1]; read-out: IC50 of metal ion inhibition of SARM1): 600 ± 100 µM

**Q.** For `O=C(O)CCP(CCC(=O)O)CCC(=O)O` [TCEP, tris(2–carboxyethyl)phosphine], which “Effect of reducing agents on SARM1 activity” value (SARM1 TIR domain [1]) is on record?
**A.** Neither DTT nor TCEP altered SARM1 activity

**Q.** For `[Cl-].[Cl-].[Zn+2]` [Zn^2+, ZnCl2], which “Effect of divalent metal ions and EDTA” value (SARM1 TIR domain [1]; [4]) is on record?
**A.** inhibit SARM1

**Q.** With `NC(=O)c1cccnc1` [nicotinamide] as the compound, how does the Ki (CD38; ref [23]) read?
**A.** 7100 µM

**Q.** And the Pattern of inhibition (CD38; ref [24]–[27])?
**A.** mixed inhibition

**Q.** What about the Pattern of inhibition (Sir2) of the same compound?
**A.** noncompetitive
